# From EP0398925B1, “GROWTH INHIBITING AGENT AND THE USE THEREOF” (CHILDREN'S HOSPITAL CORPORATION, priority 1988, dated 1989)
# Tests used:
# [1] = tested on: chorioallantoic membrane of the chick embryo; assay: CAM assay: avascular zone around a methylcellulose disc holding the test substance; type: in vivo; settings: for angiogenesis-inhibition: 100 µg of cyclodextrin with 50 µg of hydrocortisone, no successes at (+) or (++) level; for angiogenesis suppression activity: unmodified CDs with hydrocortisone (Examples 18-20)
# Description: A more economic bioassay makes use of the chorioallantoic membrane of the chick embryo. This test will for convenience be referred to hereinafter as the "CAM assay". For a more detailed description of the CAM assay, see Folkman et al., Science 221:719 (1983). A typical CAM assay, such as used for the evaluations in the examples in Section 7, infra, employs 16 eggs per experiment. A 2 mm diameter disk of methylcellulose containing the test substance is applied to the chorioallantoic membrane of a 6-day chick embryo, cultured in a Petri dish, in a humidified incubator with 3% carbon dioxide. Two days later (8-day embryo), the membrane is examined under a stereomicroscope at six- to ten-fold magnification. Inhibition of angiogenesis by the test substance is evidenced by the development of an avascular zone around the methylcellulose disc. An avascular zone of 4 mm is graded as (++) and an avascular zone of 2 mm is graded as (+). […] A rating of zero % reflects absence of inhibition or the test substance under the test conditions.
# The sustained release methylcellulose discs are prepared by dispersing appropriate amount(s) of the test substance of substances in an 0.45% aqueous solution of methylcellulose, and depositing 10 microliter aliquots of the resulting solution in a Teflon mold, followed by air drying for about one hour in a laminar flow hood.
# rabbit cornea [2] = assay: Rabbit cornea test, endotoxin Elvax implant, test substance given in a second Elvax implant; type: in vivo; settings: day 13, Elvax pellet with β-CD-TDS 15 µg/mm³ and/or cortexolone 30 µg/mm³, over 100% = stimulation; for Vessel Density, Inhibition (% of Untreated Control Group): length-density index
# Method: In another series of experiments, the antiangiogenic activity of a water-soluble cyclodextrin salt derivative in combination with cortexolone was evaluated using the rabbit cornea test as described by Gimbrone et al., J. Nat'l Cancer Inst. 52:413 (1974). In these experiments, E. coli endotoxin (17 µg/mm³) incorporated into sustained release polymer pellets of ethylene vinylacetate copolymer [Elvax, Sigma Chemical, St. Louis, MO (hereinafter "Elvax")] was implanted between the vascular limbal edge of the rabbit corneas. The test substance(s) were administered by means of a second Elvax implant incorporating the particular test substance.
# Elvax containing endotoxin was implanted into the corneas of 12 rabbits. The animals were then divided into 4 groups and 4 eyes were treated for each group as follows: Group 1, received no further treatment and served as the control group; Group 2, β-CD-TDS at 15 µg/mm³ Elvax pellet; Group 3, cortexolone at 30 µg/mm³ Elvax pellet; and Group 4, a combination of β-CD-TDS and cortexolone incorporated into an Elvax pellat at a final concentration of 15 µg/mm³ Elvax of β-CD-TDS and 30 µg/mm³ Elvax of cortexolone. The vessel length of new capillary growth was measured every 2 days with a slit-lamp stereoscope at 10X using an ocular grid calibrated to ± 0.1 mm.
# Thus, the vessel density was also evaluated and graded using the following scale: O=no vessels/cornea; 1=1-4 vessels/cornea; 2=5-20 vessels/cornea; 3=20-50 vessels/cornea; and 4=more than 50 vessels/cornea. This grade was then multiplied by mean maximal length of the vessels to obtain a semi-quantitative estimate of vessel density (length-density index) for each cornea.
# rabbit cornea [3] = assay: Rabbit corneal test, endotoxin implant, test substance applied topically as eye drops; type: in vivo; settings: eye drops in saline; 9th day; hydrocortisone 0.5 mg/ml, β-CD-TDS 1.0 mg/ml (combination uses hydrocortisone-21-phosphate)
# Description: The rabbit corneal test described by Perlin, Fed. Proc. 36:101 (1977) modified as described below, was employed to examine the effectiveness of a combination of β-CD-TDS and hydrocortisone In this corneal test, a sustained release polymer impregnated with bacterial endotoxin was first implanted in rabbit corneas. Endotoxin slowly released from this implant induces angiogenesis in the cornea in a manner analogous to the neovascularization observed in patients rejecting a corneal transplant. Rather than employing a second implant containing the test substance to deliver such test substance as generally used, in the present experiments the test substance was applied topically to the cornea, i.e., in the form of eye drops. Animals having received an endotoxin-containing implant were divided into four groups and were treated by topical application (eye drops) as follows: Group 1, was not treated further and served as the control group; Group 2, received hydrocortisone alone (0.5 mg/ml); Group 3, hydrocortisone-21-phosphate and β-CD-TDS, (0.5 mg/ml and 1.0 mg/ml, respectively); and Group 4, β-CD-TDS (1.0 mg/ml). The diluent for the eye drops was saline in all cases. FIG. 3 (A-D) illustrates the results typically obtained on the 9th day post-implantation and treatment.
# [4] = Solubility in liquid water at zero °C; type: physicochemical
# Description: The CD derivatives useful in the present invention are highly hydrophilic and therefore very water soluble. Without wishing to be bound by theory, we believe that a highly hydrophilic character is important to allow interaction with cellular surfaces. We also believe a very high water solubility of the derivative is an important factor which cooperatively interacts with the inherent complexing ability of the CD structure to provide effective inhibition of angiogenesis with an exogenous steroid, as provided by this invention. We believe that the hydrophlilic activity is roughly indicated by the affinity to water, as measured by water solubility. It is important to measure the same at 0°C since at higher temperatures the most suitable derivative have solubilities so high that meaningful measurements are difficult. […] All solubility measurements referred to herein relate to the solubility of the substantially anhydrous derivatives, and when these are salts, to the anhydrous sodium form. […] In order to make comparisons that included the very water-soluble CD sulfates, the solubilities of which were so high at room temperature that measurement was not practical, all solubility measurements were made in liquid water at zero °C. One can picture this to be a measure of the competition of the hydrophile bonding with water in relation to the orderly bonding of water to itself.
# rat aortic SMC = assay: Suppression of smooth muscle cell growth in tissue culture; type: cell-based; settings: each used alone, 0.03 µg/ml up to 400 µg/ml
# Method: (§1) The bioassay of this activity was made using tissue cultures of rat aortic SMC and calf aortic SMC, with dosages ranging from 0.03 µg/ml up to 400 µg/ml.
# calf aortic SMC = assay: as above; type: cell-based; settings: each used alone, 0.03 µg/ml up to 400 µg/ml
# Method: as §1
# [5] = compound 25 µg/10 µl with 50 µg to 60 µg of hydrocortisone in 10 µl of 0.45% methylcellulose
# [6] = compound 100 µg/10 µl with 50 µg to 60 µg of hydrocortisone in 10 µl of 0.45% methylcellulose
# [7] = 25 µg/10 µl of β-CD-TDS with Cortexolone 50 µl/10 µl
molecule,measurement,setting,value
"O=C(O)[C@@H]1CCN1 [(a) L-2-Azetidine, L-2-azetidinecarboxylic acid]",% Avascular zones,"[1]; L-2-Azetidine 400 ug/10 µl, (a) 0 µg CD-TDS, (b) 25 µg CD-TDS",28%
"C[C@]12CCC(=O)C=C1CC[C@@H]1[C@@H]2CC[C@@]2(C)[C@H]1CC[C@]2(O)C(=O)CO [Cortexolone, 17 alpha, 21-dihydroxypregn-4-ene-3,20-dione]",% Avascular zones,"[1]; Cortexolone alone, 50 µl/10 µl",zero
same,"Vessel Length, Inhibition (% of Untreated Control Group)",rabbit cornea [2],49%
same,"Vessel Length, Inhibition (% of Untreated Control Group)",rabbit cornea [2]; listed as cortexolone,about 49%
same,"Vessel Density, Inhibition (% of Untreated Control Group)",rabbit cornea [2],61%
same,"Vessel Density, Inhibition (% of Untreated Control Group)",rabbit cornea [2]; listed as cortexolone,about 61%
"C[C@]12CCC(=O)C=C1CC[C@@H]1[C@@H]2[C@@H](O)C[C@@]2(C)[C@H]1CC[C@]2(O)C(=O)CO [hydrocortisone, 11 beta, 17 alpha, 21-trihydroxypregn-4-ene-3,20-dione]",effect on endotoxin-induced angiogenesis in the cornea,rabbit cornea [3],only a slight inhibition of angiogenesis
"OC[C@H]1O[C@@H]2O[C@H]3[C@H](O)[C@@H](O)[C@@H](O[C@H]4[C@H](O)[C@@H](O)[C@@H](O[C@H]5[C@H](O)[C@@H](O)[C@@H](O[C@H]6[C@H](O)[C@@H](O)[C@@H](O[C@H]7[C@H](O)[C@@H](O)[C@@H](O[C@H]8[C@H](O)[C@@H](O)[C@@H](O[C@H]1[C@H](O)[C@H]2O)O[C@@H]8CO)O[C@@H]7CO)O[C@@H]6CO)O[C@@H]5CO)O[C@@H]4CO)O[C@@H]3CO [β-CD, β-cyclodextrin]",angiogenesis-inhibition,[1],total absence of angiogenesis-inhibition
same,% Avascular zones,[1]; [5],0.04%
same,% Avascular zones,[1]; [6],0%
same,angiogenesis suppression activity,[1],no indication of angiogenesis suppression activity
α-cyclodextrin [α-CD],angiogenesis-inhibition,[1],total absence of angiogenesis-inhibition
same,% Avascular zones,[1]; [5],0%
same,% Avascular zones,[1]; [6],5± 0.3%
same,angiogenesis suppression activity,[1],no indication of angiogenesis suppression activity
same,"Solubility 0°C, g/100 ml H₂O",[4],6 g/100 ml H₂O
β-cyclodextrin tetradeca sulfate [β-CD-TDS],effectiveness relative to whole heparin in suppressing smooth muscle cell (SMC) growth,rat aortic SMC,about three
same,effectiveness relative to whole heparin in suppressing smooth muscle cell (SMC) growth,calf aortic SMC,about three
same,% Avascular zones,[1]; [7],85%
same,% avascular zones (++) or greater,[1]; [7],31%
same,% Avascular zones,[1]; [5],58± 7.0%
same,% Avascular zones,[1]; compound 50 µg/10 µl with 50 µg to 60 µg of hydrocortisone in 10 µl of 0.45% methylcellulose,75± 5.8%
same,% Avascular zones,[1]; [6],55± 7.5%
same,effect on endotoxin-induced angiogenesis in the cornea,rabbit cornea [3],slight stimulation of angiogenesis
same,"Solubility 0°C, g/100 ml H₂O",[4],42 g/100 ml H₂O
γ-cyclodextrin [γ-CD],angiogenesis-inhibition,[1],total absence of angiogenesis-inhibition
same,% Avascular zones,[1]; [6],0%
same,angiogenesis suppression activity,[1],no indication of angiogenesis suppression activity
